# Assay results from US20090131468A1, “Bis-(Sulfonylamino) Derivatives in Therapy 065” (AstraZeneca AB, priority 2007, published 2009).
# Biological target: T1, human mPGES-1 (Homo sapiens, UniProt O14684)
# T1 sequence (O14684 1-152): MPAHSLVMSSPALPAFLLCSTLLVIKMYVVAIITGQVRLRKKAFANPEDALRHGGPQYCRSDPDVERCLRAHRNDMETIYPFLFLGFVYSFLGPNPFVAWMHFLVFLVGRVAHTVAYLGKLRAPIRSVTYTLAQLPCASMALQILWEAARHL
# Assay: Microsomal prostaglandin E synthase biochemical assay
# Details: microsome preparation containing human mPGES-1; PGH2 10.8 μM, GSH 2.5 mM, pH 6.8; PGE2 quantified by HTRF; average of at least n=2
# Description: Compounds were tested as inhibitors of microsomal prostaglandin E synthase activity in microsomal prostaglandin E synthase assays and whole cell assays. These assays measure prostaglandin E2 (PGE2) synthesis which is taken as a measure of prostaglandin E synthase activity. Microsomal prostaglandin E synthase biochemical assays used microsomal prostaglandin E synthase-1 in microsomal preparations. The source of the microsomes can be for example interleukin-1β-stimulated human A549 cells (which express human mPGES-1) or Sf9 cells transfected with plasmids encoding human mPGES-1 cDNA.
# A solution of test compound was added to a diluted microsome preparation containing human mPGES-1 and pre-incubated for 15 minutes in potassium phosphate buffer pH 6.8 with cofactor glutathione (GSH). Corresponding solutions without test compound were used as positive controls, and corresponding solutions without test compound and without microsomes were used as negative controls. The enzymatic reaction was then started by addition of the substrate PGH2 in an organic solution (dry acetonitrile).
# The reaction was stopped after one minute by adding an acidic solution (pH 1.9) of ferric chloride and citrate (final concentrations 7 mM and 47 mM respectively), by which the PGH2 was sequestered (the PGH2 is reduced to mainly 12-hydroxy heptadecatrineoic acid (12-HHT) which is not detected by the subsequent PGE2 detection step). The resulting solution was then pH neutralized by addition of potassium phosphate buffer, prior to diluting an aliquot of the resulting solution in a weak potassium phosphate buffer (50 mM, pH 6.8) containing 0.2% BSA (w/v). […] The PGE2 formed was quantified by use of a commercial HTRF based kit (catalogue #62PG2PEC or #62P2APEC from Cisbio International). 100% activity was defined as the PGE2 production in positive controls subtracted by the PGE2 production in the negative controls. IC50 values were then determined using standard procedures.
row,Structure (SMILES),IC50 [µM]
1,"NS(=O)(=O)c1ccccc1S(=O)(=O)NC(=O)c1ccc(-c2cc3ccccc3o2)cn1 [Example 1, 5-Benzofuran-2-yl-N-(2-sulfamoylphenyl)sulfonyl-pyridine-2-carboxamide]",0.24
2,"NS(=O)(=O)c1ccccc1S(=O)(=O)NC(=O)c1ccc(-c2cc3ccccc3s2)cc1 [Example 4, 4-Benzothiophen-2-yl-N-(2-sulfamoylphenyl)sulfonyl-benzamide]",0.04
3,"NS(=O)(=O)c1ccccc1S(=O)(=O)NC(=O)c1ccc(-c2nc3ccccc3o2)cc1 [Example 8, 4-Benzooxazol-2-yl-N-(2-sulfamoylphenyl)sulfonyl-benzamide]",0.086
4,"NS(=O)(=O)c1ccccc1S(=O)(=O)NC(=O)c1ccc2cc(-c3ccccc3)oc2c1 [Example 9, 2-Phenyl-N-(2-sulfamoylphenyl)sulfonyl-benzofuran-6-carboxamide]",0.078
5,"NS(=O)(=O)c1ccccc1S(=O)(=O)NC(=O)c1ccc(Br)cc1 [Example 10, 4-Bromo-N-(2-sulfamoylphenyl)sulfonyl-benzamide]",0.44
6,"NS(=O)(=O)c1ccccc1S(=O)(=O)NC(=O)c1ccc(Br)cc1Cl [Example 11, 4-Bromo-2-chloro-N-(2-sulfamoylphenyl)sulfonyl-benzamide]",5.5
7,"Cc1cc(C(=O)NS(=O)(=O)c2ccccc2S(N)(=O)=O)ccc1Br [Example 12, 4-Bromo-3-methyl-N-(2-sulfamoylphenyl)sulfonyl-benzamide]",0.17
8,"NS(=O)(=O)c1ccccc1S(=O)(=O)NC(=O)c1ccc(Br)cc1F [Example 14, 4-Bromo-2-fluoro-N-(2-sulfamoylphenyl)sulfonyl-benzamide]",1.4
9,"Cc1cc(Br)ccc1C(=O)NS(=O)(=O)c1ccccc1S(N)(=O)=O [Example 15, 4-Bromo-2-methyl-N-(2-sulfamoylphenyl)sulfonyl-benzamide]",2
10,"NS(=O)(=O)c1ccccc1S(=O)(=O)NC(=O)C1CC2CCC1C2 (centres unmarked) [Example 17, N-(2-Sulfamoylphenyl)sulfonylnorbornane-2-carboxamide]",9.8
11,"NS(=O)(=O)c1ccccc1S(=O)(=O)NC(=O)c1cccc(OC(F)F)c1 [Example 19, 3-(Difluoromethoxy)-N-(2-sulfamoylphenyl)sulfonyl-benzamide]",8.7
12,"NS(=O)(=O)c1ccccc1S(=O)(=O)NC(=O)c1ccc(F)c(Br)c1 [Example 20, 3-Bromo-4-fluoro-N-(2-sulfamoylphenyl)sulfonyl-benzamide]",0.59
13,"NS(=O)(=O)c1ccccc1S(=O)(=O)NC(=O)c1cccc(COCC(F)(F)C(F)F)c1 [Example 21, N-(2-Sulfamoylphenyl)sulfonyl-3-(2,2,3,3-tetrafluoropropoxymethyl)benzamide]",2.2
14,"NS(=O)(=O)c1ccccc1S(=O)(=O)NC(=O)c1ccc(Cl)cc1F [Example 23, 4-Chloro-2-fluoro-N-(2-sulfamoylphenyl)sulfonyl-benzamide]",1
15,"NS(=O)(=O)c1ccccc1S(=O)(=O)NC(=O)c1ccc2oc(-c3ccccc3)cc2c1 [Example 25, 2-Phenyl-N-(2-sulfamoylphenyl)sulfonyl-benzofuran-5-carboxamide]",0.02
16,"Cc1nc(-c2ccc(C(F)(F)F)cc2)sc1C(=O)NS(=O)(=O)c1ccccc1S(N)(=O)=O [Example 26, 4-Methyl-N-(2-sulfamoylphenyl)sulfonyl-2-[4-(trifluoromethyl)phenyl]1,3-thiazole-5-carboxamide]",0.12
17,"Cc1nc(-c2ccc(Cl)cc2)sc1C(=O)NS(=O)(=O)c1ccccc1S(N)(=O)=O [Example 28, 2-(4-Chlorophenyl)-4-methyl-N-(2-sulfamoylphenyl)sulfonyl-1,3-thiazole-5-carboxamide]",0.044
18,"NS(=O)(=O)c1ccccc1S(=O)(=O)NC(=O)c1ccc(OCc2ccccc2)cc1 [Example 30, 4-Phenylmethoxy-N-(2-sulfamoylphenyl)sulfonyl-benzamide]",0.16
19,"NS(=O)(=O)c1ccccc1S(=O)(=O)NC(=O)c1ccc(-c2ccccc2)cc1 [Example 31, 4-Phenyl-N-(2-sulfamoylphenyl)sulfonyl-benzamide]",0.32
20,"NS(=O)(=O)c1ccccc1S(=O)(=O)NC(=O)c1ccc(-c2ccccc2)s1 [Example 35, 5-Phenyl-N-(2-sulfamoylphenyl)sulfonyl-thiophene-2-carboxamide]",0.53
21,"NS(=O)(=O)c1ccccc1S(=O)(=O)NC(=O)c1ccc(-c2ccc(Cl)c(Cl)c2)o1 [Example 36, 5-(3,4-Dichlorophenyl)-N-(2-sulfamoylphenyl)sulfonyl-furan-2-carboxamide]",0.28
22,"NS(=O)(=O)c1ccccc1S(=O)(=O)NC(=O)c1ccc(-c2cccc(C(F)(F)F)c2)o1 [Example 37, N-(2-Sulfamoylphenyl)sulfonyl-5-[3-(trifluoromethyl)phenyl]furan-2-carboxamide]",1.1
23,"CCCc1c(C(=O)NS(=O)(=O)c2ccccc2S(N)(=O)=O)cnn1-c1cc(Cl)cc(Cl)c1 [Example 38, 1-(3,5-Dichlorophenyl)-5-propyl-N-(2-sulfamoylphenyl)sulfonyl-pyrazole-4-carboxamide]",1.5

# Other lines, results leading:
row,IC50 [µM],Structure (SMILES)
1,2,"NS(=O)(=O)c1ccccc1S(=O)(=O)NC(=O)c1ccc(-c2cccc(Cl)c2Cl)cn1 [Example 2, 5-(2,3-Dichlorophenyl)-N-(2-sulfamoylphenyl)sulfonyl-pyridine-2-carboxamide]"
2,0.0058,"NS(=O)(=O)c1ccccc1S(=O)(=O)NC(=O)c1ccc(-c2cc3ccccc3o2)cc1 [Example 3, 4-Benzofuran-2-yl-N-(2-sulfamoylphenyl)sulfonyl-benzamide]"
3,0.023,"NS(=O)(=O)c1ccccc1S(=O)(=O)NC(=O)c1ccc(-c2nc3ccccc3s2)cc1 [Example 5, 4-Benzothiazol-2-yl-N-(2-sulfamoylphenyl)sulfonyl-benzamide]"
4,1.1,"NS(=O)(=O)c1ccccc1S(=O)(=O)NC(=O)c1ccc(-c2nc3cnccc3o2)cc1 [Example 6, 4-(7-Oxa-3,9-diazabicyclo [4.3.0]nona-2,4,8,10-tetraen-8-yl)-N-(2-sulfamoylphenyl)-sulfonyl-benzamide]"
5,1,"NS(=O)(=O)c1ccccc1S(=O)(=O)NC(=O)c1ccc(-c2nc3cccnc3o2)cc1 [Example 7, 4-(7Oxa-5,9-diazabicyclo [4.3.0]nona-2,4,8,10-tetraen-8-yl)-N-(2-sulfamoylphenyl)-sulfonyl-benzamide]"
6,0.29,"NS(=O)(=O)c1ccccc1S(=O)(=O)NC(=O)c1ccc(Br)c(F)c1 [Example 13, 4-Bromo-3-fluoro-N-(2-sulfamoylphenyl)sulfonyl-benzamide]"
7,5.2,"NS(=O)(=O)c1ccccc1S(=O)(=O)NC(=O)CC12CC3CC(CC(C3)C1)C2 [Example 16, 2-(1-Adamantyl)-N-(2-sulfamoylphenyl)sulfonyl-acetamide]"
8,0.1,"NS(=O)(=O)c1ccccc1S(=O)(=O)NC(=O)C1(c2ccccc2)CCCCC1 [Example 18, 1-Phenyl-N-(2-sulfamoylphenyl)sulfonyl-cyclohexane-1-carboxamide]"
9,0.03,"Cc1nc(-c2cccc(C(F)(F)F)c2)sc1C(=O)NS(=O)(=O)c1ccccc1S(N)(=O)=O [Example 22, 4-Methyl-N-(2-sulfamoylphenyl)sulfonyl-2-[3-(trifluoromethyl)phenyl]1,3-thiazole-5-carboxamide]"
10,5.4,"NS(=O)(=O)c1ccccc1S(=O)(=O)NC(=O)c1ccc(Cl)cc1Cc1ccccc1 [Example 24, 2-Benzyl-4-chloro-N-(2-sulfamoylphenyl)sulfonyl-benzamide]"
11,0.29,"Cc1nc(-c2ccccc2)sc1C(=O)NS(=O)(=O)c1ccccc1S(N)(=O)=O [Example 29, 4-Methyl-2-phenyl-N-(2-sulfamoylphenyl)sulfonyl-1,3-thiazole-5-carboxamide]"
12,1.5,"CC(C)(C)c1ccc(C(=O)NS(=O)(=O)c2ccccc2S(N)(=O)=O)cc1 [Example 32, N-(2-Sulfamoylphenyl)sulfonyl-4-tert-butyl-benzamide]"
13,4.6,"Cn1c(C(=O)NS(=O)(=O)c2ccccc2S(N)(=O)=O)cc2ccccc21 [Example 33, 1-Methyl-N-(2-sulfamoylphenyl)sulfonyl-indole-2-carboxamide]"
14,1.6,"NS(=O)(=O)c1ccccc1S(=O)(=O)NC(=O)c1ccc(-c2ccccn2)s1 [Example 34, 5-Pyridin-2-yl-N-(2-sulfamoylphenyl)sulfonyl-thiophene-2-carboxamide]"
15,0.082,"NS(=O)(=O)c1ccccc1S(=O)(=O)NC(=O)c1sc2cc(Cl)ccc2c1Cl [Example 39, 3,6-Dichloro-N-(2-sulfamoylphenyl)sulfonyl-benzothiophene-2-carboxamide]"
